Patent US20200399392A1, “INHIBITORS OF PLA2-G1B COFACTORS FOR TREATING CANCER” (priority 2018, published 2020)

Columns and labels:
[1] = tested on: pSTAT5 NT in CD4 T cells; assay: PLA2-GIB bioassay on CD4 T cells: pSTAT5 nuclear translocation in response to IL-7, confocal microscopy; type: cell-based, human; conditions: for effect on pSTAT5 NT: FIG. 5B; for nuclear translocation of phosphoSTAT5 (pSTAT5 NT) induced by IL-7: buffer, FIG. 1A; for pSTAT5 NT in response to IL-7: FIG. 2
Description: Purification of Human CD4 T-lymphocytes—Venous blood was obtained from healthy volunteers through the EFS (Etablissement Français du Sang, Centre Necker-Cabanel, Paris). CD4 T-cells were purified from whole blood using RosetteSep Human CD4+ T cell Enrichment Cocktail (Stem Cell, 15062). This cocktail contains mouse and rat monoclonal antibodies purified from mouse ascites fluid or hybridoma culture supernatant, by affinity chromatography using protein A or Protein G sepharose. These antibodies are bound in bispecific tetrameric antibody complexes which are directed against cell surface antigens on human hematopoietic cells (CD8, CD16, CD19, CD36, CD56 CD66b, TCRγ/δ) and glycophorin A on red blood cells. The rosetteSep antibody cocktail crosslinks unwanted cells in human whole blood to multiple red blood cells, forming immunorosettes. This increases the density of unwanted cells, such that they pellet along with the free red blood cells when centrifuged over a buoyant density medium such as lymphocytes separation medium (Eurobio, CMSMSL01-01).
Whole blood was incubated with RosetteSep Human CD4+ T cell Enrichment Cocktail at 50 μl/ml for 20 minutes at room temperature under gentle shaking (100 rpm), diluted with an equal volume of PBS+2% foetal bovine serum (FBS) and mixed gently. The diluted samples were centrifuged 20 minutes at 1200×g on top of lymphocytes separation medium. The enriched cells were then collected from the density medium at plasma interface and washed twice with PBS+2% FBS. Cells were subsequently resuspended in RPMI 1640 medium (Lonza) supplemented with 5% FBS, 50 mM HEPES pH 7.4, glutamine, penicillin, streptomycin and fungizone (complete medium), counted with a Moxi Z mini automated cell counter (ORFLO, MXZ000). Cells suspension was adjusted at 7×10^6 cells/ml and equilibrated at least 2 h at 37° C. in a 5% CO2 humidified atmosphere.
The enriched CD4-T cell population was controlled by flow cytometry on a cytoflex (Beckman coulter). The quiescence of recovered CD4 T-cells was controlled by the low level of IL-2Rα (CD25).

[2] = molecular target: T1, gC1qR (Homo sapiens, UniProt Q07021); assay: gC1qR-peptides binding assay (ELISA on microplates); conditions: peptide coated, His-tag-gC1qR 0 to 3 μg/well, FIG. 12
T1 sequence (Q07021 74-282): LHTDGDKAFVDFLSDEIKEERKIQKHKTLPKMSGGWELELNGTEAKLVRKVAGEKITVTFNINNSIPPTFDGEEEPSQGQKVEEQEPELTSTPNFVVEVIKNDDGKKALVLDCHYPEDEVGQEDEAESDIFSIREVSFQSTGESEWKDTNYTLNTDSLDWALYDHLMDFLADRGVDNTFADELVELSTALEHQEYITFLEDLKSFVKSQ
Description: The unbound protein was removed; the wells washed 2× with TBST (20 mM Tris-HCl pH 7.5, 150 mM NaCl, and 0.05% Tween-20) and the unreacted sites blocked by incubation (30 min, room temp) with 300 μl of 3% BSA in TBST. After washing (2× with TBST), the microtiter plate bound peptides was incubated (2 h, room temp.) with different amount of His-tag-gC1qR ranging from 0 to 3 μg/well in triplicate. After washing (5 times with TBST), 100 μl of anti-His tag-HRP antibody (1:1000; 71840-3, Merck) in 3% BSA in TBST was added per well and incubated for 2 h at room temperature. Microplates wells were then washed (5 times with TBST) and 100 μl of TMB ELISA substrate standard solution (UP664781, Interchim) was added per well. Reaction was stopped with 100 μl per well of a H2SO4 solution at 0.16M and OD at 450 nm was measured on a microplate reader (Tecan Infinite M1000 Pro).
A scrambled peptide or a control peptide were used as control.

[3] = tested on: PLA2-GIB; assay: PLA2-GIB enzymatic assay on [3H] arachidonic acid labelled Jurkat E6.1 T cells; type: cell-based, human; conditions: Jurkat E6.1 cells pretreated 21 h, 200 nM PLA2-GIB, FIG. 15
Description: Jurkat E6.1 T cells (ECACC 88042803) or gC1qR KO Jurkat E6.1 T cells were incubated for 17 h at 5×10^5 cells/ml with 1 μCi/ml of arachidonic acid [5,6,8,9,11,14,15-^3H(N)] (Perkin Elmer, NET298Z250UC) in RPMI 1640 medium (Lonza) supplemented with 10% FBS, 50 mM HEPES pH 7.4, glutamine, penicillin, streptomycin and fungizone at 2 ml/well in 6-well plates at 37° C. in a 5% CO2 humidified atmosphere. Cells were washed twice with RPMI with 10% FBS by centrifugation at 300×g for 10 minutes at room temperature and then frozen in 90% FBS 10% DMSO at 10^7 cells/ml/vial at −80° C. Percent of [3H] arachidonic acid in CD4 T cells is the (1 minus ratio of [3H] arachidonic acid in the supernatant of CD4 T cells without cells (cpm/ml) on total [3H] arachidonic acid in supernatant and cells (cpm/ml).
To test PLA2-GIB activity on [3H] arachidonic acid labelled Jurkat E6.1 T lymphocytes, cells were unfrozen in 10% FBS RPMI preheated at 37° C. by centrifugation at 300×g for 10 minutes at room temperature, washed twice in 2.5% FBS RPMI, and equilibrated at 5×10^4 or 10^5 Jurkat E6.1 T cells/400 μl/well in 24-well polystyrene plates for 1 h30 at 37° C. in a 5% CO2 humidified atmosphere. Then HCV core solution or vehicle dilution in 2.5% FBS RPMI at 5.95 μM was mixed with an equal volume of a PLA2GIB solution at 630 nM or 2 μM 2.5% FBS RPMI and 100 μl were added per well at the same time for 2 h. For peptide treatments, cells were pretreated for 2 h, 4 h or 21 h, as indicated on figures, with 50 μl per well of peptide solutions at 110 μM or 55 μM in 2.5% FBS RPMI. Then 50 μl per well of PLA2-GIB at 630 nM or 2 μM 2.5% FBS RPMI or medium alone were added for 2 h. Cells and supernatant were collected in eppendorf tubes and centrifuged at 580×g for 10 minutes at room temperature. The [3H] arachidonic acid released in cell supernatant was quantified in 300 μl with 16 ml of Ultima gold (Perkin Elmer, 6013329) in low diffusion vials (Perkin Elmer, 6000477) on a counter (tri-Carb 2800 TR liquid scintillation analyzer, Perkin Elmer).

[4] = tested on: PLA2-GIB; assay: PLA2-GIB enzymatic assay on [3H] arachidonic acid labelled CD4 T cells; type: cell-based, human; conditions: SA protein A alone at 10, 25 and 50 μg/ml, FIG. 9A
Description: PLA2-GIB enzymatic assay on [3H] arachidonic acid labelled CD4 T cells or Jurkat E6.1 T cells—Purified CD4 T-cells were incubated for 16 h at 2×10^6 cells/ml with 1 μCi/ml of arachidonic acid [5,6,8,9,11,14,15-^3H(N)] (Perkin Elmer, NET298Z250UC) in RPMI 1640 medium (Lonza) supplemented with 10% FBS, 50 mM HEPES pH 7.4, glutamine, penicillin, streptomycin and fungizone at 2 ml/well in 6-well plates at 37° C. in a 5% CO2 humidified atmosphere. Cells were washed twice with RPMI with 10% FBS by centrifugation at 580×g for 10 minutes at room temperature and then frozen in 90% FBS 10% DMSO at 10^7 cells/ml/vial at −80° C. […]
To test PLA2-GIB activity on [3H] arachidonic acid labelled CD4 T lymphocytes, cells were unfrozen in 10% FBS RPMI preheated at 37° C. by centrifugation at 580×g for 10 minutes at room temperature, washed twice in 2.5% FBS RPMI, and equilibrated at 2×10^5 CD4 T cells/400 μl/well in 24-well polystyrene plates for 1 h30 at 37° C. in a 5% CO2 humidified atmosphere. […] The [3H] arachidonic acid released in cell supernatant was quantified in 300 μl with 16 ml of Ultima gold (Perkin Elmer, 6013329) in low diffusion vials (Perkin Elmer, 6000477) on a counter (tri-Carb 2800 TR liquid scintillation analyzer, Perkin Elmer). […]

[5] = molecular target: gC1qR at the surface of human CD4 T cells / Jurkat E6.1 T cells (human) (UniProt Q07021); assay: cell-based or functional assay

C1q: Complement component C1q from human serum (Sigma C1740), natural ligand of gC1qR
inhibition of pSTAT5 NT ([1]; C1q alone (10 μg/ml), FIG. 6A): 40%

NH2-PWNATWTQRTLDDIW—COOH (H-PWNATWTQRTLDDIW-OH) [CTL peptide, control peptide for PEP3]
binding to gC1qR [2]: essentially do not
effect on pSTAT5 NT ([1]; peptide alone, without PLA2-GIB): no effect
effect on pSTAT5 NT ([1]; peptide with 5 nM of PLA2-GIB): no effect

NH2-SGEGGWSNGSLVDIM-COOH (H-SGEGGWSNGSLVDIM-OH) [HP Pg]
PLA2-GIB activity vs scrambled PEP3 [3]: significantly increased

NH2-WNWDSKILSDPAWNS—COOH (H-WNWDSKILSDPAWNS-OH) [Scrambled PEP3, scrambled version of PEP3 used as control]
binding to gC1qR [2]: essentially do not

PLA2-GIB: Human group IB pancreatic phospholipase A2, recombinant, produced in E. coli or in CHO-S
nuclear translocation of phosphoSTAT5 (pSTAT5 NT) induced by IL-7 ([1]; 5 nM of PLA2-GIB alone): does not affect
pSTAT5 NT in response to IL-7 ([1]; 5 nM of PLA2-GIB, compared with more than 92% without PLA2-GIB): biologically similar
inhibition of pSTAT5 NT ([1]; 75 nM of PLA2-GIB alone, FIG. 4): 49%
nuclear translocation of phosphoSTAT5 (pSTAT5 NT) induced by IL-7 ([1]; 75 nM of PLA2-GIB alone): significantly decreases
pSTAT5 NT in response to IL-7 ([1]; 75 nM of PLA2-GIB): 50%
inhibition of pSTAT5 NT ([1]; 250 nM of PLA2-GIB alone, FIG. 4): 79%
pSTAT5 NT in response to IL-7 ([1]; 250 nM of PLA2-GIB): 10%

SA protein A: Staphylococcus aureus protein A, Sigma P6031
release of [3H] arachidonic acids by CD4 T cells [4]: slightly induces

H-PWNASWSNKSLDDIW-OH [PEP3 peptide NH2-…-COOH]
inhibition of pSTAT5 NT in CD4 T cells, 0.025 ug/ml PEP3 with 5 nM PLA2-GIB [5]: 18%
inhibition of pSTAT5 NT in CD4 T cells, 0.5 ug/ml PEP3 with 5 nM PLA2-GIB [5]: 55%
inhibition of pSTAT5 NT in CD4 T cells, 2.5 ug/ml PEP3 with 5 nM PLA2-GIB [5]: 51%
